Assay results taken from patent publication US20090105278A1, “Selective inhibitors of human corticosteroid syntheses” (Universitat Des Saarlandes, priority 2004, published 2009).
Counter-ions that a name gives are not always drawn. Values belong to the compound of their own block, whether it stands above or below them.

Legend:
human CYP11B1 = biological target: T1, human CYP11B1 (Homo sapiens, UniProt P15538); assay: V79 MZh 11B1 cells inhibition test; format: cell-based; conditions: for IC50: hamster fibroblasts which express human CYP11B1, deoxycorticosterone substrate 100 nM, read-out: IC50 V79 11B1 hCYP11B1
T1 construct: expressed in transfected cells; host or cells: V79 MZh11B1 (Chinese hamster lung fibroblasts)
T1 sequence (P15538 25-503): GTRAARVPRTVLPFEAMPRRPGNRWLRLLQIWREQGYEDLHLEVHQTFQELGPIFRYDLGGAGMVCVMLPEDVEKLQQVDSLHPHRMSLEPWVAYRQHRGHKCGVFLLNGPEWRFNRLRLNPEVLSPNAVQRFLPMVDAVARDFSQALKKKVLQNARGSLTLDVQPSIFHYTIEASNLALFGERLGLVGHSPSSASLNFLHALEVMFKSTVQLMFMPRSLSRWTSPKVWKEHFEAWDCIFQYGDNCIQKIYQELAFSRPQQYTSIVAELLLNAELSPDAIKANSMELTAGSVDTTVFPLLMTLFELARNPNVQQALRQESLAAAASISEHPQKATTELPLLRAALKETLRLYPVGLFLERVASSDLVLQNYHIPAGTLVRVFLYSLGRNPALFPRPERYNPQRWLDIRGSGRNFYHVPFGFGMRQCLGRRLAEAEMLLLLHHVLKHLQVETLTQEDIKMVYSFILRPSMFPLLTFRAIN
Description: (§1) Both cell lines were cultured in DMEM^+ containing […] and the antibiotics penicillin and streptomycin (10%) for protection from bacterial contamination. The cells were passaged every 2-3 days after treatment with trypsin/EDTA because the doubling rate was 1-2 days depending on the number of cells. […] When there was further need, freshly thawed cells were employed.
Thereafter, the plate was stored at 37° C. and […] in a CO2 incubator. […] Controls without inhibitor were treated in the same way. The enzyme reactions were quenched by extracting the supernatant with 500 μl of EtOAc. The samples were centrifuged (10,000 g, 2 min), the solvent was removed and evaporated.
(§2) It was calculated by determining the percent inhibition for at least 3 different inhibitor concentrations, which must all be in the linear range of the sigmoidal IC50 curve (log C/% inhibition).
(§3) The calculation was effected by linear regression. The values determined were used only if they formed a straight line with a reliability of […].
(§4) The plate was developed twice with the mobile solvent chloroform:methanol:water (300:20:1). Unlabeled 11-deoxycorticosterone and corticosterone were applied as a reference for the CYP11B1 reaction. For the CYP11B2 reaction, 11-deoxycorticosterone, corticosterone, 18-hydroxycorticosterone and aldosterone were used as references. The detection of the unlabeled references was effected at 260 nm. Subsequently, imaging plates (BAS MS2340, for ^14C samples, Raytest, Straubenhardt, Germany) were exposed to the HPTLC plates for 48 h. The imaging plates were scanned with the phosphoimager system Fuji FLA 3000 (Raytest, Straubenhardt, Germany), and the steroids were quantified.

human CYP11B2 [1] = biological target: T2, human CYP11B2 (Homo sapiens, UniProt P19099); assay: V79 MZh 11B2 cells inhibition test; format: cell-based; parameters: expressed in transfected cells; host or cells: V79 MZh11B2 (Chinese hamster lung fibroblasts); conditions: for IC50: hamster fibroblasts which express human CYP11B2, deoxycorticosterone substrate 100 nM, read-out: IC50 V79 11B2 hCYP11B2
T2 sequence (P19099 25-503): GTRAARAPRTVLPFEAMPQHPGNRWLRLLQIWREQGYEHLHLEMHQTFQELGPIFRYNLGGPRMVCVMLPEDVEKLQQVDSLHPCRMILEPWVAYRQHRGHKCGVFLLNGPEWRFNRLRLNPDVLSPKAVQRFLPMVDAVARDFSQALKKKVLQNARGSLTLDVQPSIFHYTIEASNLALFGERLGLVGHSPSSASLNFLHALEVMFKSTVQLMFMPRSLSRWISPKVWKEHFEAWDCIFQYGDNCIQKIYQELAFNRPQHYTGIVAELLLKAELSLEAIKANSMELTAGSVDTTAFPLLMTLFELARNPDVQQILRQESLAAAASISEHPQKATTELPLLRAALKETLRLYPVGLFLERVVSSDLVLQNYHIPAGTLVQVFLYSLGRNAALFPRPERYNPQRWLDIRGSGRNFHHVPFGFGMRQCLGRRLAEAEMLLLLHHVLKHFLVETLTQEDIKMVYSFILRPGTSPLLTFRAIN
Description: as §1
Thereafter, the plate was stored at 37° C. and […] in a CO2 incubator. The V79 MZh 11B1 cells were incubated for 120 min, and the V79 MZh 11B2 cells were incubated for 40 min. Controls without inhibitor were treated in the same way. The enzyme reactions were quenched by extracting the supernatant with 500 μl of EtOAc. The samples were centrifuged (10,000 g, 2 min), the solvent was removed and evaporated.
For V79 MZh11B2, the conversion rate was obtained in accordance with equation 3: […]
as §2, §3, §4

human CYP11B2 [2] = biological target: T2, human CYP11B2; assay: Screening test in transgenic fission yeast (S. pombe PE1) expressing human CYP11B2; format: cell-based; parameters: expressed in transfected cells; conditions: S. pombe cells which express human CYP11B2, deoxycorticosterone substrate 100 nM, inhibitor 500 nM
Description: 492.5 μl of this cell suspension was admixed with 5 μl of inhibitor solution (50 μM of the compound to be tested in ethanol or DMSO) and incubated at 32° C. for 15 min. Controls were admixed with 5 μl of ethanol. […] The test was quenched by extracting the sample with 500 μl of EtOAc. After centrifugation (10,000 g, 2 min), the EtOAc phase was removed and evaporated to dryness. […] The reaction of the substrate to form corticosterone was analyzed by HPTLC (see below).
The quantification of the spots for the substrate deoxycorticosterone and the products corticosterone (and, if detectable, 18-hydroxycorticosterone and aldosterone) was effected with the related evaluation program AIDA. […] The calculation of the conversion rate was effected according to equation 1.
as §4

human CYP17 = biological target: T3, human CYP17 (Homo sapiens, UniProt P05093); assay: Percent inhibition of CYP17 (membrane fraction of E. coli pJL17/OR); format: biochemical; conditions: E. coli which expresses human CYP17; 5 mg/ml protein; progesterone substrate 2.5 μM; inhibitor 2.5 μM; read-out: % Inhibition human CYP17
T3 construct: made in house; host or cells: E. coli pJL17/OR (membrane fraction)
T3 sequence (P05093 1-508): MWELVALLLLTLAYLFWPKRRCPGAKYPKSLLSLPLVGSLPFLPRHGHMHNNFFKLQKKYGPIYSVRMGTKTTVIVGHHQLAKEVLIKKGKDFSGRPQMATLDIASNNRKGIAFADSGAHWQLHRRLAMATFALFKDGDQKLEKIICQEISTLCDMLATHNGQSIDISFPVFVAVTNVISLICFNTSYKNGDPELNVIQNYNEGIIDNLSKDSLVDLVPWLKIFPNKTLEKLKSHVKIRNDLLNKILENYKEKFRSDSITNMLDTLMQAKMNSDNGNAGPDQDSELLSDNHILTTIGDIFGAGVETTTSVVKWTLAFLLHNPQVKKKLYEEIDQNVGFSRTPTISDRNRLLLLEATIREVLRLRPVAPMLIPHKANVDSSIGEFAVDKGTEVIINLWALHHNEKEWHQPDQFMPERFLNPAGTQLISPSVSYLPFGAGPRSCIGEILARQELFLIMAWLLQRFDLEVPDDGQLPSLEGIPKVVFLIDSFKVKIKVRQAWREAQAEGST
Description: The recombinantly altered E. coli strain pJL17/OR, in which human CYP17 and rat NADPH-P450-reductase were coexpressed, was grown and stored according to the method of Ehmer et al. (Ehmer, P. B. et al., J. Steroid Biochem. Mol. Biol. 75: 57-63 (2000)). For isolating the membrane fraction, 5 ml of the bacterial cell suspension with an OD578 of 50 was washed with phosphate buffer (0.05 M; pH 7.4; 1 mM MgCl2; 0.1 mM EDTA and 0.1 mM DTT). The bacteria were removed by centrifugation and resuspended in 10 ml of ice cold TES buffer (0.1 M tris-acetate; pH 7.8; 0.5 mM EDTA; 0.5 M sucrose). Four milligrams of lysozyme in 10 ml of ice cold water was added to obtain a final concentration of 0.2 mg/ml. This was followed by incubation for 30 minutes under continued shaking on ice. The spheroblasts were obtained by a renewed centrifugation step at 12,000 g for 10 min and again resuspended in 3 ml of ice cold phosphate buffer (composition see above, additionally 0.5 mM PMSF).
After freezing and thawing, the cells were lysed on ice with an ultrasonic disintegrator. The whole cells and the cell debris were centrifuged off at 3000 g for 7 min. The supernatant was again centrifuged at 50,000 g for 20 min at 4° C. A membrane pellet sedimented and was resuspended in 2 ml of phosphate buffer (composition see above) with […] by means of an Ultra-Turrax mixer. […] Aliquots with an approximate protein concentration of 5 mg/ml were stored at −70° C. until use.
Control incubations were performed in parallel with 5 μl DMSO without urea. The reaction was started by adding 50 μl of a membrane suspension diluted 1 to 5 in phosphate buffer (0.8 to 1 mg of protein per ml). After thoroughly mixing the components, the mixture was incubated at 37° C. for 30 min.
The steroids were extracted with 1 ml of EtOAc. […] After the centrifugation, 800 μl of the organic phase was removed, placed into a new vessel and evaporated to dryness. The samples were dissolved in 50 μl of a water-methanol mixture (1:1) and analyzed by HPLC. The substrate conversion was calculated from the ratio of the areas of the product peaks (17α-hydroxyprogesterone and 16α-hydroxyprogesterone) to that of the substrate peak. The activity of the inhibitors was calculated from the reduced substrate conversion after the addition of inhibitors in accordance with the following formula: […]

human placental CYP19 = biological target: T4, human placental CYP19 (Homo sapiens, UniProt P11511); assay: IC50 of CYP19 (human placental microsomes); format: biochemical; conditions: human placental CYP19; testosterone substrate 2.5 μM
T4 construct: The enzyme was obtained from the microsome fraction of fresh human placenta; from tissue; host or cells: human placenta, microsomal fraction
T4 sequence (P11511 1-503): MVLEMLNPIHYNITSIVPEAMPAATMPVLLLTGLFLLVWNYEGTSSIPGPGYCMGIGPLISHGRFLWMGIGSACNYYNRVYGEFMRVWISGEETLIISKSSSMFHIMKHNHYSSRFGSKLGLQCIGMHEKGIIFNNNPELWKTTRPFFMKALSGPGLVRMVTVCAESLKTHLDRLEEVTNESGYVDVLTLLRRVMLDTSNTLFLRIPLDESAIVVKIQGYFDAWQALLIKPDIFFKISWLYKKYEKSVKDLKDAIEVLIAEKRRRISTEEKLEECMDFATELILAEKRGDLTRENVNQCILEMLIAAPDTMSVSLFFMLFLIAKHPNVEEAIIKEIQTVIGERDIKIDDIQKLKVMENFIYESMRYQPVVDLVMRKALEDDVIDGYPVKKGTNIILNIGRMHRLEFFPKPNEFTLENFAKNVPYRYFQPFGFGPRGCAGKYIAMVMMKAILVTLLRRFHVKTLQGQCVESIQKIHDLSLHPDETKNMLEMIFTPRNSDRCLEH
Description: The isolated microsomes were suspended in a minimum volume of phosphate buffer (0.05 M; pH 7.4; […]). In addition, DTT (10 mM) and EDTA (1 mM) were added to protect the enzyme from degradation reactions.
[…] […] The compounds to be tested were dissolved in DMSO and diluted with buffer to the desired concentration. The final DMSO concentration of the control and inhibitor incubations was about 20%. Each vessel was preincubated in a water bath at 30° C. for 5 min. The reaction was started by adding the microsomal protein (0.1 mg). The total volume of each mixture was 200 μl. After 14 min, the reaction was quenched by adding 200 μl of ice cold 1 mM HgCl2 solution. Two hundred microliters of a 2% aqueous suspension of dextran-coated charcoal, DCC) was added for absorbing the steroids, and the vessels were shaken for 20 min. Thereafter, the charcoal was centrifuged off at 1500 g for 5 min. The radioactive water present in the supernatant (^3H2O) was assayed by scintillation measurement using an LKB-Wallac beta counter. The calculation of the IC50 values was effected by a semilogarithmic plot of the percent inhibition against the inhibitor concentration.

Structure (SMILES): C(=C1/CCc2ccccc21)/c1ccncc1 (as salt: oxalate) [Compound 2a, 4-[(E)-2,3-Dihydro-1H-indane-1-ylidenemethyl]pyridine Oxalate]
melting point: 167 °C

Structure (SMILES): N#Cc1ccc2c(c1)/C(=C\c1cnc[nH]1)CCC2.O=C(O)C(=O)O
melting point: 197 °C

Structure (SMILES): C/C(=C1/CCc2ccccc21)c1cccnc1.Cl [Compound 38a, 3-[(1E)-1-(2,3-Dihydro-1H-indane-1-ylidene)ethyl]pyridine Hydrochloride]
IC50 (human CYP11B1): 159 nM | % Inhibition human hCYP11B2 (human CYP11B2 [2]): 67% | IC50 (human CYP11B2 [1]): 96.1 nM

The remaining lines, values ahead:

melting point: 234 °C
Structure (SMILES): Fc1ccc2c(c1)CC/C2=C\c1cccc2cnccc12 (as salt: hydrochloride) [Compound 30a, 5-[(E)-(5-Fluoro-2,3-dihydro-1H-indane-1-ylidene)methyl]isoquinoline Hydrochloride]

melting point: 241 °C
Structure (SMILES): Brc1ccc2c(c1)CC/C2=C\c1cccnc1 (as salt: hydrochloride) [Compound 9a, 3-[(E)-(5-Bromo-2,3-dihydro-1H-indane-1-ylidene)methyl]pyridine Hydrochloride]

Inhibition of human CYP11B1, in words (human CYP11B1; V79 cells): very weak inhibition | IC50 (human CYP11B1): 2450 nM | Selectivity factor IC50 (CYP11B1)/IC50 (CYP11B2) (human CYP11B2 [1]; V79 cells expressing human CYP11B1 or CYP11B2): 245 | IC50 (human CYP11B2 [1]): 10 nM
Structure (SMILES): c1cncc(-c2ccc3cccc4c3c2CC4)c1 [Compound 50, 3-(1,2-Dihydroacenaphthylene-3-yl)pyridine]

inhibition at 2.5 µM (human CYP17): 8% | IC50 (human placental CYP19): 6700 nM | inhibition at 0.5 µM (human CYP11B2 [2]; read-out: % Inhibition human hCYP11B2): 55%
Structure (SMILES): C(=C1/CCc2ccccc21)/c1ccncc1 [Compound 2a, 4-[(E)-2,3-Dihydro-1H-indane-1-ylidenemethyl]pyridine Oxalate]
